Reference: US20260042763A1, “PE[…] POSITIVE […] THE TREATMENT OF IRRITABLE BOWEL SYNDROME AND OTHER AILMENTS OF THE PERIPHERAL NERVOUS SYSTEM” (The Johns Hopkins University, priority 2022, published 2026)
Read-outs that look alike come from different tables or passages of the source.

Target: T1, human isoforms of GABAA (α3ß2γ2) receptors (Homo sapiens, UniProt P18507+P34903)
T1 construct: expressed in transfected cells
Test: Potentiation of GABA-evoked currents at GABAA (α3β2γ2) receptors, automated patch-clamp (QPatch), Example B1
Assay type: cell-based
Conditions: for Emax: Emax of potentiation, read-out: Max %
Description: The ability of compounds exemplified above to potentiate the effect of GABA on GABAA receptors (α3β2γ2) was determined using one or more of the methods described below.
Ltk cells stably expressing the human isoforms of GABAA (α3ß2γ2) receptors were used together with submaximal GABA concentrations to investigate the modulatory effects of the test items. Cells were incubated at 37° C. in a humidified atmosphere with 5% CO2 (rel. humidity about 95%). The cells were continuously maintained in and passaged in sterile culture flasks containing a 1:1 mixture of Dulbecco's modified eagle medium and nutrient mixture D-MEM/F-12 (1×, liquid, with L-Glutamine), supplemented with 10% fetal bovine serum and 1.0% Penicillin/Streptomycin solution. The complete medium as indicated above was supplemented with neomycin. In general, cells were passaged at a confluence of about 80 to 90%. For electrophysiological measurements cells were harvested at a confluence of about 80 to 90% from sterile culture flasks containing culture complete medium. Cells were transferred as suspension in PBS to the QPatch 16X or QPatch HTX system to the centrifuge/washer directly. Expression of GABA receptor was induced by adding Dexamethasone to the cells for 24 to 48 h before experimentation.
Modulatory effects of the compounds of this disclosure were investigated using cells stably transfected with GABA-activated channels of the GABAA (α3ß2γ2) subtype together with submaximal GABA concentrations. Expression of GABA receptor were induced by adding Dexamethasone to the cells for 24 to 48 h before experimentation. In general, cells were passaged at a confluence of about 80 to 90%. For electrophysiological measurements cells were harvested at a confluence of about 80 to 90% from sterile culture flasks containing culture complete medium. Cells were transferred as suspension in PBS to the QPatch 16X or QPatch HTX system to the centrifuge/washer directly. Cells were incubated at 37° C. in a humidified atmosphere with 5% CO2 (rel. humidity about 95%). The cells were continuously maintained in and passaged in sterile culture flasks containing a 1:1 mixture of Dulbecco's modified eagle medium and nutrient mixture D-MEM/F-12 (1×, liquid, with L-Glutamine), supplemented with 10% foetal bovine serum and 1.0% Penicillin/Streptomycin solution and neomycin. The 1× bath solution was made at least every 5 days out of a sterile 10× bath solution, which had been prepared prior to the experimental start of the present study and stored at 1° C. to 9° C. The final bath solution included Sodium Chloride 137 mM, Potassium Chloride 4 mM, Calcium Chloride 1.8 mM, Magnesium Chloride 1 mM, HEPES 10 mM, D-Glucose 10 mM, pH (NaOH) 7.4. The 1× intracellular solution was thawed every day and includes Potassium Chloride 130 mM, Magnesium Chloride 1 mM, Mg-ATP 5 mM, HEPES 10 mM, EGTA 5 Mm, pH (KOH) 7.2. Automated patch-clamping: Cells were transferred as suspension in serum-free medium to the QPatch HTX system and kept in the cell storage tank during experiments. All solutions applied to cells including the intracellular solution were maintained at room temperature (19° C. to 30° C.). After formation of a Gigaohm seal between the patch electrodes and transfected individual Ltk cells were ruptured to assure electrical access to the cell interior (whole-cell patch-configuration). Inward currents were measured upon application of 2.0 μM GABA to patch-clamped cells for 4 s. During the entire experiment the cells were voltage-clamped at a holding potential of −80 mV. For the analysis of test items, GABAA receptors were stimulated by 2.0 μM GABA and test item combinations described below. Thirty-second prewash steps with test items was performed in between two agonist applications. […]

[1] = Ltk cells expressing GABAA α3β2γ2, 2.0 μM GABA, whole-cell, holding potential −80 mV

T1 sequence (P34903 29-492): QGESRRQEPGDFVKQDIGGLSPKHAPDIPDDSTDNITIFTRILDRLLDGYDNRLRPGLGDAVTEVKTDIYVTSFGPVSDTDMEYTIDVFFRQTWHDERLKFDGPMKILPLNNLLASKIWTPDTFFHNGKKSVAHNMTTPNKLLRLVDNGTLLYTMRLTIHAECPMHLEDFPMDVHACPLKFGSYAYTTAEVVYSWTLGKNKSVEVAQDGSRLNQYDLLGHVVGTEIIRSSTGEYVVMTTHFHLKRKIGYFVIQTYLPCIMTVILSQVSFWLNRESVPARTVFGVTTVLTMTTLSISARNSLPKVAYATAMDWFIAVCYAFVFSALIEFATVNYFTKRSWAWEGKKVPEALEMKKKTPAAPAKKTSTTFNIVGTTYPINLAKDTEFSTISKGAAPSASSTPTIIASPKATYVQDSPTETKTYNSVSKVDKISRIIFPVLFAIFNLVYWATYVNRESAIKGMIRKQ
T1 sequence (P47870 25-512 partner limits assumed): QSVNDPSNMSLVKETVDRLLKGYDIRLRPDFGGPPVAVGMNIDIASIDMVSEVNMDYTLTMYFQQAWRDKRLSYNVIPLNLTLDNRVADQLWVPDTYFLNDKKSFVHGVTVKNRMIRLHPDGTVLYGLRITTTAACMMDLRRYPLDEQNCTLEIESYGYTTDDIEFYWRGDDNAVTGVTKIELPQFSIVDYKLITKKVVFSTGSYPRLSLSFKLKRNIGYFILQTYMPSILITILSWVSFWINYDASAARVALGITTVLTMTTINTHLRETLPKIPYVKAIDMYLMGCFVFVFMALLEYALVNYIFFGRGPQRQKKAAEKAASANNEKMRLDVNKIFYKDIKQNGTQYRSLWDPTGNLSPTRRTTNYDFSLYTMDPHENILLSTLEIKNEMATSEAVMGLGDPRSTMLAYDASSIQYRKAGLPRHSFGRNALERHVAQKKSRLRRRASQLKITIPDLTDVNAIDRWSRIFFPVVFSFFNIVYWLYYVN
T1 sequence (P18507 40-475): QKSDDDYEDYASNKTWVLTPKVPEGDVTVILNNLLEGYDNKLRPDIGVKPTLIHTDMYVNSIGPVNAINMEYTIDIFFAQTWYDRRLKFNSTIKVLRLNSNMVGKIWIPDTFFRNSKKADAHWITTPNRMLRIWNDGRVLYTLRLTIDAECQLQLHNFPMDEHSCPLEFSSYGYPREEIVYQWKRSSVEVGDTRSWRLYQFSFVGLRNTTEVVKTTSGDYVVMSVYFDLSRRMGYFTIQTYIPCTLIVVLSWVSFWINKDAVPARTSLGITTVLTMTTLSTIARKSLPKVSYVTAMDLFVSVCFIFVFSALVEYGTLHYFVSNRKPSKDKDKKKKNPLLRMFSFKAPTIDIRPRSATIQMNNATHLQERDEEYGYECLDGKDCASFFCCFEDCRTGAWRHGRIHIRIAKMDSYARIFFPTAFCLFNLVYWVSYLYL

NC(=O)c1cn2c(n1)CN=C(c1ccccc1F)c1cc(Cl)ccc1-2 [Compound 238, 8-chloro-6-(2-fluorophenyl)-4H-imidazo[1,2-a][1,4] benzodiazepine-2-carboxamide]
EC50: < 50 nM
Emax [1]: > 100%

O=C(O)c1cn2c(n1)CN=C(c1ccccc1F)c1cc(F)ccc1-2 [Compound 221, 8-fluoro-6-(2-fluorophenyl)-4H-imidazo[1,2-a][1,4]benzodiazepine-2-carboxylic acid]
EC50: 50 to 100 nM
Emax [1]: 50 to 100%

CC(C)CC1N=C(c2ccccc2F)c2cc(Cl)ccc2-n2cc(C(=O)O)nc21 (centres unmarked) [Compound 102, 8-chloro-6-(2-fluorophenyl)-4-isobutyl-4H-imidazo[1,2-a][1,4]benzodiazepine-2-carboxylic acid]
Emax [1]: 50 to 100%
EC50 (Ltk cells expressing GABAA α3β2γ2, 2.0 μM GABA, whole-cell, holding potential −80 mV, read-out: EC50): > 100 nM

NCCNC(=O)c1cn2c(n1)CN=C(c1ccccc1F)c1cc(Cl)ccc1-2 [Compound 210, N-(2-aminoethyl)-8-chloro-6-(2-fluorophenyl)-4H-imidazo[1,2-a][1,4]benzodiazepine-2-carboxamide]
EC50: < 50 nM
Emax [1]: > 100%

O=C(O)c1cn2c(n1)CN=C(c1ccccc1F)c1cc(Cl)c(F)cc1-2 [Compound 201, 8-chloro-9-fluoro-6-(2-fluorophenyl)-4H-imidazo[1,2-a][1,4]benzodiazepine-2-carboxylic acid]
EC50: < 50 nM
Emax [1]: > 100%

O=C(O)c1cn2c(n1)CN=C(c1ccccc1F)c1ccc(Cl)cc1-2 [Compound 225, 9-chloro-6-(2-fluorophenyl)-4H-imidazo[1,2-a][1,4]benzodiazepine-2-carboxylic acid]
Emax [1]: < 50%

O=C(O)c1cn2c(n1)CN=C(c1ccccc1F)c1cc(C3CC3)ccc1-2 [Compound 222, 8-cyclopropyl-6-(2-fluorophenyl)-4H-imidazo[1,2-a][1,4]benzodiazepine-2-carboxylic acid]
EC50: 50 to 100 nM
Emax [1]: > 100%

O=C(O)c1cn2c(n1)CN=C(c1c(F)cccc1F)c1cc(Cl)ccc1-2 [Compound 214, 8-chloro-6-(2,6-difluorophenyl)-4H-imidazo[1,2-a][1,4]benzodiazepine-2-carboxylic acid]
EC50: < 50 nM
Emax [1]: 50 to 100%

O=C(O)c1cn2c(n1)CN=C(c1ccc(F)cc1)c1cc(Cl)ccc1-2 [Compound 219, 8-chloro-6-(4-fluorophenyl)-4H-imidazo[1,2-a][1,4]benzodiazepine-2-carboxylic acid]
Emax [1]: 50 to 100%

CN(C)C(=O)c1cn2c(n1)CN=C(c1ccccc1F)c1cc(Cl)ccc1-2 [Compound 241, 8-chloro-6-(2-fluorophenyl)-N,N-dimethyl-4H-imidazo[1,2-a][1,4]benzodiazepine-2-carboxamide]
EC50: < 50 nM
Emax [1]: > 100%

O=C(O)c1nc2n(c1CN1CCC1)-c1ccc(Cl)cc1C(c1ccccc1F)=NC2 [Compound 243, 1-(azetidin-1-ylmethyl)-8-chloro-6-(2-fluorophenyl)-4H-benzo[f]imidazo[1,2-a][1,4]diazepine-2-carboxylic acid]
EC50: > 100 nM
Emax [1]: > 100%

O=C(O)c1nc2n(c1Cl)-c1ccc(Cl)cc1C(c1ccccc1F)=NC2 [Compound 235]
EC50: < 50 nM
Emax [1]: > 100%

CC1N=C(c2ccccc2F)c2cc(Cl)ccc2-n2cc(C(=O)O)nc21 (racemic) [Compound 101, 12-Chloro-9-(2-fluorophenyl)-7-methyl-2,5,8-triazatricyclo[8.4.0.0^2,6] tetradeca-1 (10),3,5,8,11,13-hexaene-4-carboxylic acid]
EC50: < 50 nM
Emax [1]: > 100%

CN(C)CCNC(=O)c1cn2c(n1)CN=C(c1ccccc1F)c1cc(Cl)ccc1-2 [Compound 228, 8-chloro-N-[2-(dimethylamino)ethyl]-6-(2-fluorophenyl)-4H-imidazo[1,2-a][1,4]benzodiazepine-2-carboxamide]
EC50: < 50 nM
Emax [1]: 50 to 100%

O=C(O)c1cn2c(n1)CN=C(c1ccccc1Br)c1cc(Cl)ccc1-2 [Compound 206, 6-(2-bromophenyl)-8-chloro-4H-imidazo[1,2-a][1,4]benzodiazepine-2-carboxylic acid]
EC50: < 50 nM
Emax [1]: 50 to 100%

O=C(O)c1nc2n(c1CN1CCCCC1)-c1ccc(Cl)cc1C(c1ccccc1F)=NC2 [Compound 246, 8-chloro-6-(2-fluorophenyl)-1-(piperidin-1-ylmethyl)-4H-benzo[f]imidazo[1,2-a][1,4]diazepine-2-carboxylic acid]
EC50: > 100 nM
Emax [1]: 50 to 100%

Cc1ccccc1C1=NCc2nc(C(=O)O)cn2-c2ccc(Cl)cc21 [Compound 204, 8-chloro-6-(o-tolyl)-4H-imidazo[1,2-a][1,4]benzodiazepine-2-carboxylic acid]
EC50: < 50 nM
Emax [1]: > 100%

Nc1c(C(=O)O)nc2n1-c1ccc(Cl)cc1C(c1ccccc1F)=NC2 [Compound 249, 3-Amino-12-chloro-9-(2-fluorophenyl)-2,5,8-triazatricyclo[8.4.0.0^2,6]tetradeca-1 (10),3,5,8,11,13-hexaene-4-carboxylic acid]
Emax [1]: > 100%

O=C(O)c1nc2n(c1CN1CCCC1)-c1ccc(Cl)cc1C(c1ccccc1F)=NC2 [Compound 247, 8-chloro-6-(2-fluorophenyl)-1-(pyrrolidin-1-ylmethyl)-4H-benzo[f]imidazo[1,2-a][1,4]diazepine-2-carboxylic acid]
EC50: > 100 nM
Emax [1]: 50 to 100%

Cc1c(C(=O)O)nc2n1-c1ccc(Cl)cc1C(c1ccccc1F)=NC2 [Compound 213, 8-chloro-6-(2-fluorophenyl)-1-methyl-4H-imidazo[1,2-a][1,4]benzodiazepine-2-carboxylic acid]
EC50: < 50 nM
Emax [1]: > 100%

O=C(O)c1cn2c(n1)CN=C(c1ccccc1F)c1cc(Br)ccc1-2 [Compound 207, 8-bromo-6-(2-fluorophenyl)-4H-imidazo[1,2-a][1,4]benzodiazepine-2-carboxylic acid]
EC50: < 50 nM
Emax [1]: > 100%

CNC(=O)c1cn2c(n1)CN=C(c1ccccc1F)c1cc(Cl)ccc1-2 [Compound 240, 8-chloro-6-(2-fluorophenyl)-N-methyl-4H-imidazo[1,2-a][1,4]benzodiazepine-2-carboxamide]
EC50: < 50 nM
Emax [1]: > 100%

O=C(O)c1cn2c(n1)C[N+]([O-])=C(c1ccccc1F)c1cc(Cl)ccc1-2 [Compound 236, 2-carboxy-8-chloro-6-(2-fluorophenyl)-4H-514-benzo[e]imidazo[2,1-c][1,4]diazepin-5-olate]
EC50: > 100 nM
Emax [1]: 50 to 100%

O=C(O)c1cn2c(n1)CN=C(c1cccc(F)c1F)c1cc(Cl)ccc1-2 [Compound 215, 8-chloro-6-(2,3-difluorophenyl)-4H-imidazo[1,2-a][1,4]benzodiazepine-2-carboxylic acid]
EC50: < 50 nM
Emax [1]: > 100%

O=C(O)c1nc2n(c1CN1CCOCC1)-c1ccc(Cl)cc1C(c1ccccc1F)=NC2 [Compound 245, 8-chloro-6-(2-fluorophenyl)-1-(morpholinomethyl)-4H-benzo[f]imidazo[1,2-a] [1,4]diazepine-2-carboxylic acid]
EC50: > 100 nM
Emax [1]: > 100%

O=C(O)c1nc2n(c1C1CC1)-c1ccc(Cl)cc1C(c1ccccc1F)=NC2 [Compound 212, 8-chloro-1-cyclopropyl-6-(2-fluorophenyl)-4H-imidazo[1,2-a][1,4]benzodiazepine-2-carboxylic acid]
EC50: > 100 nM
Emax [1]: > 100%

O=C(O)c1cn2c(n1)C(O)N=C(c1ccccc1F)c1cc(Cl)ccc1-2 (centres unmarked) [Compound 227, 8-chloro-6-(2-fluorophenyl)-4-hydroxy-4H-benzo[f]imidazo[1,2-a][1,4]diazepine-2-carboxylic acid]
Emax [1]: 50 to 100%
